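Where inhibition never reached the appropriate level, the endpoint shown equals the highest concentration tested. Otherwise, values were interpolated linearly from a five-concentration, 48-hour dose response in 96-well plates. Abbreviation: GI50, concentration required for 50% inhibition of growth. TGI marks complete inhibition of growth.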
Tests used:
Assay in all cases: NCI tumour cell line growth inhibition, 48 h
OVCAR-3 ovarian = system: OVCAR-3 ovarian
OVCAR-4 ovarian = system: OVCAR-4 ovarian
MDA-MB-435 = system: MDA-MB-435
DU-145 prostate = system: DU-145 prostate
LOX IMVI melanoma = system: LOX IMVI melanoma
SF-539 CNS = system: SF-539 CNS
BT-549 breast = system: BT-549 breast
U251 CNS = system: U251 CNS
HT29 colon = system: HT29 colon
UO-31 renal = system: UO-31 renal
MOLT-4 leukemia = system: MOLT-4 leukemia
RXF 393 renal = system: RXF 393 renal
SK-MEL-2 melanoma = system: SK-MEL-2 melanoma
HOP-92 NSCLC = system: HOP-92 NSCLC
SNB-19 CNS = system: SNB-19 CNS
SN12C renal = system: SN12C renal
MDA-MB-231 breast = system: MDA-MB-231 breast
MCF7 breast = system: MCF7 breast
K-562 leukemia = system: K-562 leukemia
NCI-H460 lung = system: NCI-H460 lung
SNB-75 CNS = system: SNB-75 CNS
EKVX NSCLC = system: EKVX NSCLC
UACC-62 melanoma = system: UACC-62 melanoma
SK-MEL-5 melanoma = system: SK-MEL-5 melanoma
SK-MEL-28 melanoma = system: SK-MEL-28 melanoma
A549 NSCLC = system: A549 NSCLC
HL-60(TB) leukemia = system: HL-60(TB) leukemia
HOP-62 NSCLC = system: HOP-62 NSCLC
SW-620 colon = system: SW-620 colon
ACHN renal = system: ACHN renal
TK-10 renal = system: TK-10 renal
CAKI-1 renal = system: CAKI-1 renal
HCT-116 colon = system: HCT-116 colon
M14 melanoma = system: M14 melanoma
COLO 205 colon = system: COLO 205 colon
UACC-257 melanoma = system: UACC-257 melanoma
786-0 renal = system: 786-0 renal
SF-268 CNS = system: SF-268 CNS
IGROV1 ovarian = system: IGROV1 ovarian
SR leukemia = system: SR leukemia
HCT-15 colon = system: HCT-15 colon
CCRF-CEM leukemia = system: CCRF-CEM leukemia
OVCAR-5 ovarian = system: OVCAR-5 ovarian
NCI-H226 lung = system: NCI-H226 lung
SK-OV-3 ovarian = system: SK-OV-3 ovarian
SF-295 CNS = system: SF-295 CNS
NCI/ADR-RES ovarian = system: NCI/ADR-RES ovarian
PC-3 prostate = system: PC-3 prostate
T-47D breast = system: T-47D breast
MALME-3M melanoma = system: MALME-3M melanoma
OVCAR-8 ovarian = system: OVCAR-8 ovarian
NCI-H23 lung = system: NCI-H23 lung
KM12 colon = system: KM12 colon

Cn1ncc2c(Sc3ccc(Cl)cc3)ncnc21
GI50 (OVCAR-3 ovarian): 36.5 µM | TGI (OVCAR-3 ovarian): > 100 µM | GI50 (OVCAR-4 ovarian): 36 µM | TGI (OVCAR-4 ovarian): > 100 µM | GI50 (MDA-MB-435): 22.5 µM | TGI (MDA-MB-435): > 100 µM | GI50 (DU-145 prostate): 36.1 µM | TGI (DU-145 prostate): > 100 µM | GI50 (LOX IMVI melanoma): 12 µM | TGI (LOX IMVI melanoma): > 100 µM | GI50 (SF-539 CNS): 68.1 µM | TGI (SF-539 CNS): > 100 µM | GI50 (BT-549 breast): 27.3 µM | TGI (BT-549 breast): > 100 µM | GI50 (U251 CNS): 16.2 µM | TGI (U251 CNS): > 100 µM | GI50 (HT29 colon): > 100 µM | TGI (HT29 colon): > 100 µM | GI50 (UO-31 renal): 5.53 µM | TGI (UO-31 renal): > 100 µM | GI50 (MOLT-4 leukemia): 10.3 µM | TGI (MOLT-4 leukemia): > 100 µM | GI50 (RXF 393 renal): 98.4 µM | TGI (RXF 393 renal): > 100 µM | GI50 (SK-MEL-2 melanoma): > 100 µM | TGI (SK-MEL-2 melanoma): > 100 µM | GI50 (HOP-92 NSCLC): 3.31 µM | TGI (HOP-92 NSCLC): > 100 µM | GI50 (SNB-19 CNS): 26.9 µM | TGI (SNB-19 CNS): > 100 µM | GI50 (SN12C renal): 7.37 µM | TGI (SN12C renal): > 100 µM | GI50 (MDA-MB-231 breast): 13.2 µM | TGI (MDA-MB-231 breast): > 100 µM | GI50 (MCF7 breast): > 100 µM | TGI (MCF7 breast): > 100 µM | GI50 (K-562 leukemia): > 100 µM | TGI (K-562 leukemia): > 100 µM | GI50 (NCI-H460 lung): 21.3 µM | TGI (NCI-H460 lung): > 100 µM | GI50 (SNB-75 CNS): 22.9 µM | TGI (SNB-75 CNS): > 100 µM | GI50 (EKVX NSCLC): 10.5 µM | TGI (EKVX NSCLC): > 100 µM | GI50 (UACC-62 melanoma): 77.8 µM | TGI (UACC-62 melanoma): > 100 µM | GI50 (SK-MEL-5 melanoma): 51.5 µM | TGI (SK-MEL-5 melanoma): > 100 µM | GI50 (SK-MEL-28 melanoma): > 100 µM | TGI (SK-MEL-28 melanoma): > 100 µM | GI50 (A549 NSCLC): 18.8 µM | TGI (A549 NSCLC): > 100 µM | GI50 (HL-60(TB) leukemia): 11.3 µM | TGI (HL-60(TB) leukemia): > 100 µM | GI50 (HOP-62 NSCLC): 28.8 µM | TGI (HOP-62 NSCLC): > 100 µM | GI50 (SW-620 colon): > 100 µM | TGI (SW-620 colon): > 100 µM | GI50 (ACHN renal): > 100 µM | TGI (ACHN renal): > 100 µM | GI50 (TK-10 renal): > 100 µM | TGI (TK-10 renal): > 100 µM | GI50 (CAKI-1 renal): 15.4 µM | TGI (CAKI-1 renal): > 100 µM | GI50 (HCT-116 colon): 55.1 µM | TGI (HCT-116 colon): > 100 µM | GI50 (M14 melanoma): 93.5 µM | TGI (M14 melanoma): > 100 µM | GI50 (COLO 205 colon): > 100 µM | TGI (COLO 205 colon): > 100 µM | GI50 (UACC-257 melanoma): > 100 µM | TGI (UACC-257 melanoma): > 100 µM | GI50 (786-0 renal): 44.1 µM | TGI (786-0 renal): > 100 µM | GI50 (SF-268 CNS): 7.26 µM | TGI (SF-268 CNS): > 100 µM | GI50 (IGROV1 ovarian): 4.36 µM | TGI (IGROV1 ovarian): 49.8 µM | GI50 (SR leukemia): 20.6 µM | TGI (SR leukemia): > 100 µM | GI50 (HCT-15 colon): > 100 µM | TGI (HCT-15 colon): > 100 µM | GI50 (CCRF-CEM leukemia): 4.8 µM | TGI (CCRF-CEM leukemia): > 100 µM | GI50 (OVCAR-5 ovarian): > 100 µM | TGI (OVCAR-5 ovarian): > 100 µM | GI50 (NCI-H226 lung): 36.5 µM | TGI (NCI-H226 lung): > 100 µM | GI50 (SK-OV-3 ovarian): 67.9 µM | TGI (SK-OV-3 ovarian): > 100 µM | GI50 (SF-295 CNS): 9.58 µM | TGI (SF-295 CNS): > 100 µM | GI50 (NCI/ADR-RES ovarian): 21.7 µM | TGI (NCI/ADR-RES ovarian): > 100 µM | GI50 (PC-3 prostate): 7.03 µM | TGI (PC-3 prostate): > 100 µM | GI50 (T-47D breast): 14.4 µM | TGI (T-47D breast): > 100 µM | GI50 (MALME-3M melanoma): 57.4 µM | TGI (MALME-3M melanoma): > 100 µM | GI50 (OVCAR-8 ovarian): > 100 µM | TGI (OVCAR-8 ovarian): > 100 µM | GI50 (NCI-H23 lung): 15.9 µM | TGI (NCI-H23 lung): > 100 µM | GI50 (KM12 colon): 11.6 µM | TGI (KM12 colon): > 100 µM

— PubChem BioAssay (NCI)
